According to publication PMC3401608 (Journal of Medicinal Chemistry, 2012):
Like-named read-outs stand apart in the source and are kept apart here.

Experiments:
[1] = target: human cloned 5-HT6 receptors (Homo sapiens, UniProt P50406); assay: 5-HT6R radioligand competition binding assays
postmenopausal women = conditions: 120 mg/day, but not 60 mg/day; cited from earlier work

human cloned 5-HT6 receptors, sequence (P50406 whole entry): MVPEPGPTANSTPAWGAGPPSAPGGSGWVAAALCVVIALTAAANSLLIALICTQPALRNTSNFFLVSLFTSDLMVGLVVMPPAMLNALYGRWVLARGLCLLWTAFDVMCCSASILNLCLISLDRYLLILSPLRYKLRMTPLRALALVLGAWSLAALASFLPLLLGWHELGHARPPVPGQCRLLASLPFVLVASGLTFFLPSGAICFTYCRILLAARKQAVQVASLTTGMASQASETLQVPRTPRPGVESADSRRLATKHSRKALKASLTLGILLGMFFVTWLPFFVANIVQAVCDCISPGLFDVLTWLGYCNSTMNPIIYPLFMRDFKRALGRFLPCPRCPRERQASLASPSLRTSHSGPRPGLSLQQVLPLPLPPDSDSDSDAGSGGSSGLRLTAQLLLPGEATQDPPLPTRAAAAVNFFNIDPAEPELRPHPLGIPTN

Ki [1] [µM]	Ki ([1]; 5-HT6R, Table 6, unit inferred) [µM]	SMILES	Risk of cognitive impairment (postmenopausal women)
> 10	> 10	COc1ccccc1N1CCN(CCCCNC(=O)c2ccc3ccccc3c2)CC1 [Compound 9]	–
> 10	> 10	CC(NCCC(c1ccccc1)c1ccccc1)c1ccccc1 (stereo not drawn) [Compound 5]	–
–	–	O=C(c1ccc(OCCN2CCCCC2)cc1)c1c(-c2ccc(O)cc2)sc2cc(O)ccc12 [Compound 10, raloxifene]	reduced risk of cognitive impairment
–	> 10	O=c1cc(N2CCOCC2)oc2c(-c3ccccc3)cccc12 [Compound 7]	–
